# Experimental data from ChEMBL document CHEMBL3774368, “1,2,4-Triazolyl octahydropyrrolo[2,3-b]pyrroles: A new series of potent and selective dopamine D3 receptor antagonists” (Bioorg Med Chem, 2016).
# Experiments:
# D(2) dopamine receptor = D(2) dopamine receptor (Homo sapiens, UniProt P14416); assay: Displacement of [3H]-spiperone from human dopamine D2 receptor expressed in CHO-K1 cell membranes after 120 mins by liquid scintillation counter method
# [1] = biological target: Voltage-gated inwardly rectifying potassium channel KCNH2 (Homo sapiens, UniProt Q12809); assay: Inhibition of human ERG tail current expressed in HEK293 cells after 5 mins by patch clamp assay
# Chain of Voltage-gated inwardly rectifying potassium channel KCNH2 (Q12809 whole entry): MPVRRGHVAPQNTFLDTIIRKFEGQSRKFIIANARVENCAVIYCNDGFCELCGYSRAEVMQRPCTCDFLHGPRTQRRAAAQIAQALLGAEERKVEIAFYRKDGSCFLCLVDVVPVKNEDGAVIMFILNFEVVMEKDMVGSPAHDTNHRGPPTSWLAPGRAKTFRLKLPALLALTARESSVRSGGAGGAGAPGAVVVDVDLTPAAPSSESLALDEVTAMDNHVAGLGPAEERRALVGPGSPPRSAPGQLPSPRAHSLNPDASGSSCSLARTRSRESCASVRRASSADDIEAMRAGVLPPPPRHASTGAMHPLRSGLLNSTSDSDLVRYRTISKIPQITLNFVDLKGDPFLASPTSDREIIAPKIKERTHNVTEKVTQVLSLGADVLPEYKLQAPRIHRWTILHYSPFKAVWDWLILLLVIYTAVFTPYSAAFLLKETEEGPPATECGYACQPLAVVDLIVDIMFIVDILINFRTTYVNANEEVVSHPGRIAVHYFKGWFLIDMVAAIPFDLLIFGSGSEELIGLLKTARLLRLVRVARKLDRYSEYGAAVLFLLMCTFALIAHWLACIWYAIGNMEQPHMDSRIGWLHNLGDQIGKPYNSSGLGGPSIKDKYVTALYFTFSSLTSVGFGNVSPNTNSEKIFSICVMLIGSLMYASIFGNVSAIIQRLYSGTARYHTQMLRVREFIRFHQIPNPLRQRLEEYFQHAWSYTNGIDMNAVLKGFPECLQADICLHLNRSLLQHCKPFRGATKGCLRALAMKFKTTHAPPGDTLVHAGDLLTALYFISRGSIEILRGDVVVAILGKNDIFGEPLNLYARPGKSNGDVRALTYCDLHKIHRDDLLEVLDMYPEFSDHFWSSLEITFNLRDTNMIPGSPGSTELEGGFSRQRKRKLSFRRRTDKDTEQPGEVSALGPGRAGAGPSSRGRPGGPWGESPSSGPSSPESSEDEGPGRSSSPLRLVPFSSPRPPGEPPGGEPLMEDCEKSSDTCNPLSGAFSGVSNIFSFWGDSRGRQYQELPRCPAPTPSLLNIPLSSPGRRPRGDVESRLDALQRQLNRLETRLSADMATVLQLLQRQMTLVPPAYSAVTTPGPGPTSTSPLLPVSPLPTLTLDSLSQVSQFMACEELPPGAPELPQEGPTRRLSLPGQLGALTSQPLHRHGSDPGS
# D(3) dopamine receptor = D(3) dopamine receptor (Homo sapiens, UniProt P35462); assay: Displacement of [3H]-spiperone from human dopamine D3 receptor expressed in CHO-K1 cell membranes after 90 mins by liquid scintillation counter method
# Chain of D(3) dopamine receptor (P35462 whole entry): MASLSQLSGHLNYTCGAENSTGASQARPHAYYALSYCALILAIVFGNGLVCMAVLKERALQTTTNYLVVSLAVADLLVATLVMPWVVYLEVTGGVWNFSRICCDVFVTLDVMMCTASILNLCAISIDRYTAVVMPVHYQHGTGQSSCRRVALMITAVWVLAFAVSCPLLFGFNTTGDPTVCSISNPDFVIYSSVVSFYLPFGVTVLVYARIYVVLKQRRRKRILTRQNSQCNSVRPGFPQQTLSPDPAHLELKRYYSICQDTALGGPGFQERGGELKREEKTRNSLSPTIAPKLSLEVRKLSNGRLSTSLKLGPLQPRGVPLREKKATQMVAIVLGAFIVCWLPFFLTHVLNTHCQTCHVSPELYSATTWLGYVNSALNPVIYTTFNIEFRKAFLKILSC
# Chain of D(2) dopamine receptor (P14416 whole entry): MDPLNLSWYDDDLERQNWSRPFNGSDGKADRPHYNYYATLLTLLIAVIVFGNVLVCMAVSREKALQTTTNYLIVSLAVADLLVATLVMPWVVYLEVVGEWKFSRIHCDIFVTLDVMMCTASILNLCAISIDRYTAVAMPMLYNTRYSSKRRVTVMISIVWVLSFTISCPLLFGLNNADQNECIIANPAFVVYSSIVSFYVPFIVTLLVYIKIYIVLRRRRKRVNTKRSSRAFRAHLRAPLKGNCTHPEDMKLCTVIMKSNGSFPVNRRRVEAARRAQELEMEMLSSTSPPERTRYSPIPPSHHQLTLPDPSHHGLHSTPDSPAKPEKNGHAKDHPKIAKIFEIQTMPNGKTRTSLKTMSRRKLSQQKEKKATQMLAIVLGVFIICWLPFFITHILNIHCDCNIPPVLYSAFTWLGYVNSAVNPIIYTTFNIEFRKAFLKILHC
Ki (D(2) dopamine receptor),Ki (D(3) dopamine receptor),Structure (SMILES),IC50 [1]
398 nM,,Cc1ncoc1-c1nnc(SCCCN2CC3CCN(c4ccccc4)C3C2)n1C (stereo in doubt; 6a),1580 nM
631 nM,7.94 nM,Cn1c(SCCCN2CC3CCN(c4ccc(C(F)(F)F)cc4)C3C2)nnc1-c1cc[nH]c(=O)c1 (racemic),1260 nM
794 nM,,Cn1c(SCCCN2CC3CCN(c4ccccc4C(F)(F)F)C3C2)nnc1-c1cccnc1 (racemic),
,2.51 nM,Cc1ncoc1-c1nnc(SCCCN2CC3CCN(c4c(F)cccc4F)C3C2)n1C (racemic),
158 nM,2.51 nM,Cc1cc(-c2nnc(SCCCN3CC4CCN(c5ccc(C(F)(F)F)cc5)C4C3)n2C)on1 (racemic),
,3.16 nM,Cn1c(SCCCN2CC3CCN(c4ccc(C(F)(F)F)cc4)C3C2)nnc1N1CCOCC1 (stereo in doubt; 61a),
100 nM,2 nM,Cn1c(SCCCN2CC3CCN(c4cccc(C#N)c4)C3C2)nnc1-c1cnccn1 (racemic),
,3.98 nM,Cc1cccc(N2CCC3CN(CCCSc4nnc(-c5cnccn5)n4C)CC32)c1 (racemic),
,0.316 nM,Cn1c(SCCCN2CC3CCN(c4cccc(OC(F)(F)F)c4)C3C2)nnc1-c1cnccn1 (racemic),
,12.6 nM,Cn1c(SCCCN2CC3CCN(c4ccccc4)C3C2)nnc1C1CCOCC1 (racemic),
1000 nM,10 nM,Cn1c(SCCCN2CC3CCN(c4ccc(F)cc4F)C3C2)nnc1-c1cnccn1 (stereo in doubt; 36a),
50.1 nM,,Cc1ncoc1-c1nnc(SCCCN2CC3CCN(c4cccc(C#N)c4)C3C2)n1C (racemic),
631 nM,7.94 nM,Cc1ccc(N2CCC3CN(CCCSc4nnc(-c5cnccn5)n4C)CC32)cc1 (racemic),
,31.6 nM,Cc1ncoc1-c1nnc(SCCCN2CC3OCCN(c4ccc(C(F)(F)F)cc4)C3C2)n1C (racemic),
,1.58 nM,Cc1ncoc1-c1nnc(SCCCN2CC3CCN(c4ccc(C(F)(F)F)cc4)C3C2)n1C (racemic),
6310 nM,126 nM,Cn1c(SCCCN2CC3CCN(c4ccc(C#N)cc4)C3C2)nnc1-c1cnccn1 (racemic),
10 nM,0.398 nM,Cc1ncoc1-c1nnc(SCCCN2CC3CCN(c4cc(Cl)cc(Cl)c4)C3C2)n1C (racemic),< 100 nM
,2 nM,Cc1ncoc1-c1nnc(SCCCN2CC3CCN(c4ccc(C(F)(F)F)cc4)C3C2)n1C (stereo in doubt; 7a),
631 nM,12.6 nM,Cn1c(SCCCN2CC3CCN(c4ccc(C(F)(F)F)cc4)C3C2)nnc1-c1ccnnc1 (racemic),
200 nM,,Cn1cc(-c2nnc(SCCCN3CC4CCN(c5ccc(C(F)(F)F)cc5)C4C3)n2C)cn1 (racemic),
200 nM,,Cc1ncoc1-c1nnc(SCCCN2CC3CCN(c4ccc(F)cc4)C3C2)n1C (racemic),
631 nM,1 nM,Cn1c(SCCCN2CC3CCN(c4c(F)cc(F)cc4F)C3C2)nnc1-c1cnccn1 (racemic),
501 nM,3.16 nM,COc1cc(N2CCC3CN(CCCSc4nnc(-c5cnccn5)n4C)CC32)ccc1F (racemic),

Ki (D(2) dopamine receptor),Ki (D(3) dopamine receptor),Structure (SMILES),IC50 [1]
200 nM,,Cn1c(SCCCN2CC3CCN(c4ccc(C(F)(F)F)cc4)C3C2)nnc1N1CCOCC1 (racemic),
398 nM,2 nM,Cn1c(SCCCN2CC3CCN(c4ccc(C(F)(F)F)cc4)C3C2)nnc1-c1ccncc1 (racemic),
2000 nM,15.8 nM,Cn1c(SCCCN2CC3CCN(c4ccc(C(F)(F)F)cc4)C3C2)nnc1-c1cc[nH]c(=O)c1 (stereo in doubt; 55a),
631 nM,,Cn1c(SCCCN2CC3CCN(c4ccc(F)cc4)C3C2)nnc1-c1cc[nH]c(=O)c1 (racemic),
251 nM,10 nM,CC(C)Oc1ccccc1N1CCC2CN(CCCSc3nnc(-c4cnccn4)n3C)CC21 (racemic),
251 nM,,Cc1ncoc1-c1nnc(SCCCN2CC3CCN(c4ccccc4)C3C2)n1C (racemic),
316 nM,12.6 nM,Cn1c(SCCCN2CC3CCN(c4ccc(OC(F)(F)F)cc4)C3C2)nnc1-c1cnccn1 (racemic),
200 nM,2 nM,Cn1c(SCCCN2CC3CCN(c4ccc(C(F)(F)F)cc4)C3C2)nnc1N1CCOCC1 (stereo in doubt; 61b),
,12.6 nM,Cn1c(SCCCN2CC3CCN(c4ccc(C(F)(F)F)cc4)C3C2)nnc1C1CCCCC1 (stereo in doubt; 65a),
,3.16 nM,Cn1c(SCCCN2CC3CCN(c4ccc(C(F)(F)F)cc4)C3C2)nnc1-c1cccnc1 (racemic),
1260 nM,50.1 nM,Cn1c(SCCCN2CC3CCN(c4ccc(C(F)(F)F)cc4)C3C2)nnc1-c1cncnc1 (racemic),
501 nM,5.01 nM,Cc1ncoc1-c1nnc(SCCCN2CC3CCN(c4ccc(Cl)cc4Cl)C3C2)n1C (racemic),1260 nM
398 nM,,Cn1c(SCCCN2CC3CCN(c4ccc(C(F)(F)F)cc4)C3C2)nnc1-c1ccccn1 (racemic),
501 nM,,Cn1c(SCCCN2CC3CCN(c4ccc(C(F)(F)F)cc4)C3C2)nnc1-c1cnccn1 (stereo in doubt; 17a),
1260 nM,,Cn1c(SCCCN2CC3CCN(c4ccccc4C(F)(F)F)C3C2)nnc1-c1cccnc1 (stereo in doubt; 52b),
398 nM,3.98 nM,Cn1c(SCCCN2CC3CCN(c4c(F)cccc4C(F)(F)F)C3C2)nnc1-c1cnccn1 (racemic),
20 nM,1 nM,Cc1ncoc1-c1nnc(SCCCN2CC3CCN(c4ccccc4OC(F)(F)F)C3C2)n1C (racemic),
100 nM,2 nM,Cc1ncoc1-c1nnc(SCCCN2CC3CCN(c4ccc(C(F)(F)F)cc4F)C3C2)n1C (racemic),15800 nM
,12.6 nM,Cc1ncoc1-c1nnc(SCCCN2CC3CCCN(c4ccc(C(F)(F)F)cc4)C3C2)n1C (racemic),
,25.1 nM,Cn1c(SCCCN2CC3CCN(c4ccc(F)cc4C(F)(F)F)C3C2)nnc1-c1cnccn1 (racemic),
631 nM,,Cc1ncoc1-c1nnc(SCCCN2CC3CCN(c4ccc(OC(F)(F)F)cc4)C3C2)n1C (racemic),
,3.16 nM,Cc1ncoc1-c1nnc(SCCCN2CC3CCN(c4ccc(C(F)(F)F)cc4)C3C2)n1C (stereo in doubt; 7b),
794 nM,12.6 nM,Cn1c(SCCCN2CC3CCN(c4ccc(F)cc4)C3C2)nnc1C1CCCCC1 (racemic),

Ki (D(2) dopamine receptor),Ki (D(3) dopamine receptor),Structure (SMILES),IC50 [1]
251 nM,5.01 nM,Cn1c(SCCCN2CC3CCN(c4cccc(F)c4)C3C2)nnc1-c1cnccn1 (racemic),
,39.8 nM,Cc1ncoc1-c1nnc(SCCCN2CC3CN(c4ccc(C(F)(F)F)cc4)C3C2)n1C (racemic),631 nM
200 nM,,Cc1ncoc1-c1nnc(SCCCN2CC3CCN(c4ccc(F)cc4)C3C2)n1C (stereo in doubt; 9b),
200 nM,2 nM,Cn1c(SCCCN2CC3CCN(c4ccc(F)cc4)C3C2)nnc1-c1cnccn1 (racemic),
631 nM,,Cn1c(SCCCN2CC3CCN(c4c(F)cccc4F)C3C2)nnc1-c1cnccn1 (racemic),
,0.398 nM,Cn1c(SCCCN2CC3CCN(c4ccc(C(F)(F)F)cc4)C3C2)nnc1C1CCCC1 (racemic),
398 nM,10 nM,Cn1c(SCCCN2CC3CCN(c4ccc(F)cc4F)C3C2)nnc1-c1cnccn1 (racemic),
,0.2 nM,Cn1c(SCCCN2CC3CCN(c4ccc(C(F)(F)F)cc4)C3C2)nnc1C1CCCC1 (stereo in doubt; 64a),
,6.31 nM,Cn1c(SCCCN2CC3CCN(c4ccc(C(F)(F)F)cc4)C3C2)nnc1-c1ccc(=O)n(C)c1 (racemic),
,25.1 nM,Cn1c(SCCCN2CC3CCN(c4ccccc4)C3C2)nnc1C1CCOCC1 (stereo in doubt; 62b),
200 nM,6.31 nM,Cn1c(SCCCN2CC3CCN(c4ccccc4C#N)C3C2)nnc1-c1cnccn1 (racemic),
316 nM,5.01 nM,Cn1c(SCCCN2CC3CCN(c4ccccc4C(F)(F)F)C3C2)nnc1-c1ccccn1 (racemic),
398 nM,7.94 nM,Cn1c(SCCCN2CC3CCN(c4ccc(F)cc4)C3C2)nnc1-c1ccn(C)c(=O)c1 (racemic),
6310 nM,39.8 nM,Cn1c(SCCCN2CC3CCN(c4ccc(C(F)(F)F)cc4)C3C2)nnc1C1CCCCC1 (racemic),
316 nM,15.8 nM,COc1ccccc1N1CCC2CN(CCCSc3nnc(-c4cnccn4)n3C)CC21 (racemic),
1580 nM,5.01 nM,Cc1ncoc1-c1nnc(SCCCN2CC3CCN(c4ccc(C(F)(F)F)cc4F)C3C2)n1C (stereo in doubt; 8a),200 nM
31.6 nM,0.2 nM,Cn1c(SCCCN2CC3CCN(c4cccc(C(F)(F)F)c4)C3C2)nnc1-c1cnccn1 (racemic),
398 nM,3.98 nM,Cn1c(SCCCN2CC3CCN(c4ccc(C(F)(F)F)cc4)C3C2)nnc1-c1ccc(=O)[nH]c1 (racemic),1000 nM
631 nM,6.31 nM,Cc1ncoc1-c1nnc(SCCCN2CC3CCN(c4cccc(C#N)c4)C3C2)n1C (stereo in doubt; 12b),794 nM
,126 nM,Cc1ccccc1N1CCC2CN(CCCSc3nnc(-c4cnccn4)n3C)CC21 (racemic),
5010 nM,63.1 nM,CC(C)Oc1ccccc1N1CCC2CN(CCCSc3nnc(-c4cnccn4)n3C)CC21 (stereo in doubt; 35a),
316 nM,50.1 nM,Cn1c(SCCCN2CC3CCN(c4ccc(C(F)(F)F)cc4)C3C2)nnc1-c1cccnn1 (racemic),
251 nM,5.01 nM,Cn1c(SCCCN2CC3CCN(c4ccccc4C(F)(F)F)C3C2)nnc1-c1ccncc1 (racemic),
